This note sets out measurements from patent US20240238076A1, “PROCESS FOR PRODUCING VASCULAR PROSTHESES” (Medizinische Universität Wien, priority 2021, published 2024).

The subject of the series is HUVECs. Nature of the series: XTT cytotoxicity test with HUVEC cultures. The format is cell-based, human. Particulars: 24 h incubation, 10-fold dilution series from 450 μmol/ml. The protocol: Human umbilical vein endothelial cells (HUVEC, pooled donator, Lonza, Switzerland) were cultivated in endothelial growth medium (EGM-2, Lonza, Switzerland) supplemented with 10% of FBS. The exchange of medium was conducted every other day. The cells were used for the experiments between passage 3 and 6.
XTT (2,3-bis(2-methoxy-4-nitro-5-sulfophenyl)-5-[(phenylamino)carbonyl)-2H-tetrazoliumhydroxide) can be reduced to a formazan product in viable cells. The result can be determined by photometric measurements and correlated with the number of viable cells. The assay was conducted based on ISO10993-5.
HUVECs or macrophages were seeded on the polymer disks at a cell number of 10,000 cells/disk in a 96 well plate for 24 h until a confluent cell layer was formed. XTT powder was dissolved in a cell culture medium with 60° C. at a concentration of 1 mg/ml. PMS (phenazine methosulfate, Sigma-Aldrich, USA) was dissolved in PBS at a concentration of 5 mM. For preparing a working solution, which was added to cells, PMS was pipetted into the XTT solution at a concentration of 25 μM. The cells were incubated with 50 μl of this XTT working solution for 4 h at 37° C. in a cell culture incubator. The medium was then transferred to a new 96 well plate, and absorption at 450 nm was measured with a reference wavelength of 620 nm. The results are shown in FIG. 9 as mean values of three determinations. […]

Regarding `CC(C)(C)NCCNC(C)(C)C` [TBEDA, N,N′-di-tert-butylethylenediamine], the “Concentration from which the viability of HUVECs was at an acceptable level” value is 45000 µM.
